US11028051B2, “Tetrahydroquinoline-based bromodomain inhibitors” (St. Jude Children's Research Hospital, priority 2016, dated 2021)
Like-named read-outs stand apart in the source and are kept apart here.

How the values were obtained:
Test in all cases: competitive TR-FRET assay, BET-BD with acetylated peptide ligand
Assay type in all cases: binding
BRD2-BD1 = BRD2-BD1 (Homo sapiens (Human), UniProt P25440); conditions: BRD2-BD1; Table 11 additional modifications; read-out: 2.1 EC50
Description: (§1) Inhibitor potency was determined using a competitive TR-FRET assay as detailed herein, measuring interaction of the respective BET-BD with an acetylated peptide ligand (Table 2).

BRD2-BD2 = BRD2-BD2 (Homo sapiens (Human), UniProt P25440); conditions: for EC50: Table 11 additional modifications; for 2.1/2.2: ratio of BRD2-BD1 EC50 to BRD2-BD2 EC50 (selectivity)
Description: as §1

BRD3-BD1 = BRD3-BD1 (Homo sapiens (Human), UniProt Q15059); conditions: BRD3-BD1; Table 11 additional modifications; read-out: 3.1 EC50
Description: as §1

BRDT = BRDT (Homo sapiens, UniProt Q58F21); conditions: BRDT; Table 11 additional modifications; read-out: BRDT EC50
Description: as §1

Chain of BRD2-BD2 (P25440 344-453): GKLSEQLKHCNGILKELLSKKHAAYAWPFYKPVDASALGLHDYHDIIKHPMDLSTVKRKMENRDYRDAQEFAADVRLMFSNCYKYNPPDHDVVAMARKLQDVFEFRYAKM
Chain of BRD3-BD1 (Q15059 34-140): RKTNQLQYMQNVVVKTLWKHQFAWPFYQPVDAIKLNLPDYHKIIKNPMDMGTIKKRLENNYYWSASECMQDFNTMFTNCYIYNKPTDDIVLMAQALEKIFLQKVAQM
Chain of BRD2-BD1 (P25440 74-180): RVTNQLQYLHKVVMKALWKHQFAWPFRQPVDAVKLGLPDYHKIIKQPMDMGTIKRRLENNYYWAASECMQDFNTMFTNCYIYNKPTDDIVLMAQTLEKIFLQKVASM

| EC50 (BRD2-BD1) [µM] | EC50 (BRD2-BD2; BRD2-BD2, read-out: 2.2 EC50) [µM] | 2.1/2.2 (BRD2-BD2) | EC50 (BRD3-BD1) [µM] | EC50 (BRDT) [µM] | Structure (SMILES) | EC50 (BRD2-BD2; 2.2 EC50, BRD2-BD2) [µM] |
| --- | --- | --- | --- | --- | --- | --- |
| 0.11 | 0.004 | – | – | – | CC(=O)Nc1cccc(-c2ccc3c(c2)[C@H](Nc2ccc4c(c2)CCNC4)C[C@H](C)N3C(C)=O)c1 [compound 188] | – |
| 1.2 | 0.047 | 26 | – | – | COc1cc(N[C@@H]2C[C@H](C)N(C(C)=O)c3ccc(-c4cccc(NC(C)=O)c4)cc32)ccc1C#N [compound 191] | – |
| 2.2 | 0.12 | 37 | – | – | CC(=O)Nc1cccc(-c2ccc3c(c2)[C@H](Nc2cc(F)c(C#N)c(F)c2)C[C@H](C)N3C(C)=O)c1 [compound 190] | – |
| 0.89 | 0.019 | 26 | – | – | CC(=O)Nc1cccc(-c2ccc3c(c2)[C@H](Nc2ccc(C#N)cc2C)C[C@H](C)N3C(C)=O)c1 [compound 199] | – |
| 2.17 | 0.06 | 27 | – | – | CC(=O)Nc1cccc(-c2ccc3c(c2)[C@H](Nc2ccc(C#N)cc2Cl)C[C@H](C)N3C(C)=O)c1 [compound 196] | – |
| – | – | 36 | – | – | CC(=O)N1c2ccc(-c3cc[nH]n3)cc2[C@H](Nc2ccc(F)c(F)c2)C[C@@H]1C [compound 202] | – |
| 2.2 | 0.06 | 35 | – | – | CC(=O)Nc1cccc(-c2ccc3c(c2)[C@H](Nc2ccccc2C#N)C[C@H](C)N3C(C)=O)c1 [compound 194] | – |
| 3.5 | 0.054 | 39 | – | – | CC(=O)Nc1cccc(-c2ccc3c(c2)[C@H](Nc2ccccc2Cl)C[C@H](C)N3C(C)=O)c1 [compound 197] | – |
| – | – | 44 | – | – | CC(=O)N1c2ccc(-c3ccn(-c4ccc(C#N)cc4)n3)cc2[C@H](Nc2ccc(C#N)cc2)C[C@@H]1C [compound 207] | – |
| 0.67 | 0.017 | 48 | – | – | COc1cc(C#N)ccc1N[C@@H]1C[C@H](C)N(C(C)=O)c2ccc(-c3cccc(NC(C)=O)c3)cc21 [compound 189] | – |
| – | – | 51 | – | – | CC(=O)N1c2ccc(-c3cc[nH]n3)cc2[C@H](Nc2ccccc2Cl)C[C@@H]1C [compound 203] | – |
| – | – | 36 | – | – | CC(=O)Nc1cccc(-c2ccc3c(c2)[C@H](Nc2ccc(F)cc2Cl)C[C@H](C)N3C(C)=O)c1 [compound 204] | – |
| 0.87 | 0.017 | 73 | – | – | CC(=O)Nc1cccc(-c2ccc3c(c2)[C@H](Nc2ccc(C#N)c(C)c2)C[C@H](C)N3C(C)=O)c1 [compound 195] | – |
| – | – | 64 | – | – | CC(=O)N1c2ccc(-c3cccc(NC(=O)C(C)(C)C)c3)cc2[C@H](Nc2ccccc2Cl)C[C@@H]1C [compound 205] | – |
| 1 | – | 63 | – | – | CC(=O)Nc1cccc(-c2ccc3c(c2)[C@H](Nc2ccc(C#N)c(F)c2)C[C@H](C)N3C(C)=O)c1 [compound 193] | – |
| 2 | – | 92 | – | – | CC(=O)Nc1cccc(-c2ccc3c(c2)[C@H](Nc2ccccc2C)C[C@H](C)N3C(C)=O)c1 [compound 200] | – |
| – | – | 57 | – | – | CC(=O)N1c2ccc(-c3cccc(NC(=O)C(C)(C)C)c3)cc2[C@H](Nc2ccc(Cl)cc2)C[C@@H]1C [compound 206] | – |
| 3.3 | 0.057 | 19 | – | – | CC(=O)Nc1cccc(-c2ccc3c(c2)[C@H](Nc2cccc(Cl)c2)C[C@H](C)N3C(C)=O)c1 [compound 198] | – |

Second part, the compound before the results:

| Structure (SMILES) | EC50 (BRD2-BD1) [µM] | EC50 (BRD2-BD2; BRD2-BD2, read-out: 2.2 EC50) [µM] | 2.1/2.2 (BRD2-BD2) | EC50 (BRD3-BD1) [µM] | EC50 (BRDT) [µM] | EC50 (BRD2-BD2; 2.2 EC50, BRD2-BD2) [µM] |
| --- | --- | --- | --- | --- | --- | --- |
| CC(=O)N1c2ccc(-c3cccc(NCC4CCOC4)c3)cc2[C@H](Nc2ccccc2OC(F)(F)F)C[C@@H]1C (stereo partly drawn) [compound 151] | 14 | 0.67 | 49 | 8.3 | 26 | – |
| CCCCN(CCCC)c1cccc(-c2ccc3c(c2)[C@H](Nc2ccccc2OC(F)(F)F)C[C@H](C)N3C(C)=O)c1 [compound 146] | 78 | 9.6 | 22 | > 78 | > 78 | – |
| C#CCCNC(=O)c1ccc(N[C@@H]2C[C@H](C)N(C(C)=O)c3ccc(-c4cccc(NC(C)=O)c4)cc32)cc1 [compound 139] | 0.79 | 0.23 | 3.4 | 0.69 | 1.9 | – |
| COC(=O)c1ccc(N[C@@H]2C[C@H](C)N(C(C)=O)c3ccc(-c4cn(C)cn4)cc32)cc1 [compound 157] | – | – | 52 | – | – | – |
| COC(=O)c1ccc(N[C@@H]2C[C@H](C)N(C(C)=O)c3ccc(-c4c[nH]cn4)cc32)cc1 [compound 156] | – | – | 9.4 | – | – | – |
| COc1cccc(-c2ccc3c(c2)[C@H](Nc2ccc(Cl)cc2)C[C@H](C)N3C(C)=O)c1 [compound 147] | 7.2 | 1.6 | 7.4 | 9.4 | 17 | – |
| CCCN(CCC)c1cccc(-c2ccc3c(c2)[C@H](Nc2ccccc2OC(F)(F)F)C[C@H](C)N3C(C)=O)c1 [compound 155] | 17 | 5.7 | 2.6 | 79 | > 84 | – |
| CC(=O)Nc1cccc(-c2ccc3c(c2)[C@H](Nc2ccc(C(=O)COC(C)=O)cc2)C[C@H](C)N3C(C)=O)c1 [compound 162] | – | – | 21 | – | – | – |
| COC(=O)c1ccc(N[C@@H]2C[C@H](C)N(C(C)=O)c3ccc(-c4cccc(NCC5CC5)c4)cc32)cc1 [compound 141] | 2.5 | 0.5 | 0.015 | 1.7 | 5.2 | – |
| CC(=O)Nc1cccc(-c2ccc3c(c2)[C@H](NC2CCN(C)CC2)C[C@H](C)N3C(C)=O)c1 [compound 119] | – | – | 2.9 | – | – | – |
| CC(=O)Nc1cccc(-c2ccc3c(c2)[C@H](Nc2ccc(C(C)=O)cc2)C[C@H](C)N3C(C)=O)c1 [compound 17] | 1.1 | 0.07 | 16 | – | 4.6 | – |
| CC(=O)N1c2ccc(-c3cccc(NCCC(F)(F)F)c3)cc2[C@H](Nc2ccc(C#N)cc2)C[C@@H]1C [compound 180] | – | – | 13 | – | – | – |
| CC(=O)N1c2ccc(-c3cccc(NCCC(F)(F)F)c3)cc2[C@H](Nc2ccccc2OC(F)(F)F)C[C@@H]1C [compound 153] | 90 | 1.7 | 8.2 | 39 | > 90 | – |
| CC(=O)N(c1ccc(NCC2CC2)cc1)[C@@H]1C[C@H](C)N(C(C)=O)c2ccc(-c3cccc(NC(=O)OC(C)(C)C)c3)cc21 [compound 122] | – | – | 70 | – | – | – |
| COc1cccc(NC2CCN(C(C)=O)c3ccc(-c4cccc(NC(C)=O)c4)cc32)c1 (stereo not drawn) [compound 178] | – | – | 22 | – | – | – |
| CC(=O)Nc1cccc(-c2ccc3c(c2)[C@H](Nc2ccc(C#N)c(Cl)c2)C[C@H](C)N3C(C)=O)c1 [compound 186] | 2.1 | 0.059 | – | – | – | – |

| Structure (SMILES) | EC50 (BRD2-BD1) [µM] | EC50 (BRD2-BD2; BRD2-BD2, read-out: 2.2 EC50) [µM] | 2.1/2.2 (BRD2-BD2) | EC50 (BRD3-BD1) [µM] | EC50 (BRDT) [µM] | EC50 (BRD2-BD2; 2.2 EC50, BRD2-BD2) [µM] |
| --- | --- | --- | --- | --- | --- | --- |
| CC(=O)N1c2ccc(-c3cccc(NC4CCCC4)c3)cc2[C@H](Nc2ccccc2OC(F)(F)F)C[C@@H]1C [compound 154] | 20 | 1.8 | 4.6 | 27 | > 84 | – |
| COC(=O)c1ccc(CN(Cc2ccc(C(=O)OC)cc2)[C@@H]2C[C@H](C)N(C(C)=O)c3ccc(-c4cccc(NC(C)=O)c4)cc32)cc1 [compound 158] | – | – | 11 | – | – | – |
| CC(=O)Nc1cccc(-c2ccc3c(c2)[C@H](Nc2cccc(CN)c2)C[C@H](C)N3C(C)=O)c1 [compound 163] | – | – | 6.7 | – | – | – |
| CC(=O)N(c1ccc(NCCC(C)C)cc1)[C@@H]1C[C@H](C)N(C(C)=O)c2ccc(-c3cccc(NC(=O)OC(C)(C)C)c3)cc21 [compound 124] | – | – | 4.0 | – | – | – |
| CC(=O)Nc1cccc(-c2ccc3c(c2)[C@H](Nc2ccc(NC(=O)C4CC4)cc2)C[C@H](C)N3C(C)=O)c1 [compound 123] | – | – | >1000 | – | – | – |
| CC(=O)Nc1cccc(-c2ccc3c(c2)[C@H](Nc2cccc(C(F)(F)F)c2)C[C@H](C)N3C(C)=O)c1 [compound 181] | 8 | 0.17 | 8.4 | – | – | – |
| COC(=O)c1ccc(N[C@@H]2C[C@H](C)N(C(C)=O)c3ccc(-c4ccnn4C)cc32)cc1 [compound 144] | 3.8 | 0.29 | 7.0 | 3.1 | 15 | – |
| CC(=O)Nc1ccc(-c2ccc3c(c2)[C@H](Nc2ccc(Cl)cc2)C[C@H](C)N3C(C)=O)cc1 [compound 48] | 1.9 | 0.36 | 5.3 | 1.9 | 5.3 | – |
| CC(=O)Nc1cccc(-c2ccc3c(c2)[C@H](Nc2ccc(C#N)c(C(F)(F)F)c2)C[C@H](C)N3C(C)=O)c1 [compound 192] | 4.8 | – | 6.3 | – | – | 0.052 |
| CC(=O)N1c2ccc(-c3cccc(NCC4CCOC4)c3)cc2[C@H](Nc2ccc(C#N)cc2)C[C@@H]1C (stereo partly drawn) [compound 183] | – | – | 27 | – | – | – |
| CC(=O)N1c2ccc(-c3cccc(NC(=O)C(C)C)c3)cc2[C@H](Nc2ccc(C#N)cc2)C[C@@H]1C [compound 184] | 0.67 | 0.11 | 14 | – | – | – |
| CC(=O)Nc1cccc(-c2ccc3c(c2)[C@H](Nc2ccc(NC(=O)CO)cc2)C[C@H](C)N3C(C)=O)c1 [compound 121] | – | – | 33 | – | – | – |
| COC(=O)c1ccc(CN[C@@H]2C[C@H](C)N(C(C)=O)c3ccc(-c4cccc(NC(C)=O)c4)cc32)cc1 [compound 159] | – | – | 2.9 | – | – | – |
| CC(=O)N1c2ccc(-c3ccn(C)n3)cc2[C@H](Nc2ccc(C#N)cc2)C[C@@H]1C [compound 182] | – | – | 23 | – | – | – |
| CC(=O)Nc1cccc(-c2ccc3c(c2)[C@H](Nc2ccccc2Cl)C[C@H](C)N3C(C)=O)c1 [compound 187] | 8.7 | 0.12 | – | – | – | – |
| CC(=O)N1c2ccc(-c3cccc(NC(=O)C(C)(C)C)c3)cc2[C@H](Nc2ccc(C#N)cc2)C[C@@H]1C [compound 185] | 1.8 | 0.029 | – | – | – | – |
